Data reported in US20260176320A1, “MODULATORS OF G-PROTEIN COUPLED RECEPTORS” (priority 2018, published 2026).
Read-outs that look alike come from different tables or passages of the source. Numbered stars: 1 amine (or outer) side, 2 acyl side, 3 side chain; on linkers, the order of the positions; unused ones are H or OH. Side chains are listed from the residue outwards. Peptide text beside a SMILES is read from it. * marks the point of attachment. γGlu = O=C(O)[C@H](CCC(=O)[*:2])N[*:1]; X2 = O=C(CSCC(=O)*)NCCN1C(=O)CSC1=O; Palmitoyl = CCCCCCCCCCCCCCCC(=O)*

Key:
[1] = biological target: GLP-1R (Homo sapiens, UniProt P43220); experiment: HitHunter cAMP assay (GLP-1R); assay type: cell-based; conditions: cAMP; for Emax: read-out: (Emax) GLP-1R
Sequence of GLP-1R (P43220 24-463): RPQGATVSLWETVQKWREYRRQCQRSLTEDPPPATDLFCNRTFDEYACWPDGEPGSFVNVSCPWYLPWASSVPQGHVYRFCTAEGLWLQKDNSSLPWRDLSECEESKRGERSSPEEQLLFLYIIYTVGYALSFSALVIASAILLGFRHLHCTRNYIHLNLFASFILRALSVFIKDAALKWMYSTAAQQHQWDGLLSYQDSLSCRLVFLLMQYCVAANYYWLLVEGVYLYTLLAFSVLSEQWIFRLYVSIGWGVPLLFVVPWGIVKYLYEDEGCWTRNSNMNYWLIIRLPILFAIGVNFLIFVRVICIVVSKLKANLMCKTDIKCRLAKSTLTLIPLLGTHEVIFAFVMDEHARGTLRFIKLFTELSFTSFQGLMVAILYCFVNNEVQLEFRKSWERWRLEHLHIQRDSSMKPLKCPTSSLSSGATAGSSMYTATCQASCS
In short: (§1)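 Agonist stimulation lasts 30 min at room temperature on 10,000 cells per well, with phosphodiesterase blocked by 625 μM IBMX. Accumulated cAMP is quantified by competitive antibody luminescence after overnight development.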

[2] = biological target: T1, GIP-R (Homo sapiens, UniProt P48546); experiment: HitHunter cAMP assay (GIP-R); assay type: cell-based; conditions: cAMP; for Emax: read-out: (Emax) GIP-R
T1 sequence (P48546 22-466): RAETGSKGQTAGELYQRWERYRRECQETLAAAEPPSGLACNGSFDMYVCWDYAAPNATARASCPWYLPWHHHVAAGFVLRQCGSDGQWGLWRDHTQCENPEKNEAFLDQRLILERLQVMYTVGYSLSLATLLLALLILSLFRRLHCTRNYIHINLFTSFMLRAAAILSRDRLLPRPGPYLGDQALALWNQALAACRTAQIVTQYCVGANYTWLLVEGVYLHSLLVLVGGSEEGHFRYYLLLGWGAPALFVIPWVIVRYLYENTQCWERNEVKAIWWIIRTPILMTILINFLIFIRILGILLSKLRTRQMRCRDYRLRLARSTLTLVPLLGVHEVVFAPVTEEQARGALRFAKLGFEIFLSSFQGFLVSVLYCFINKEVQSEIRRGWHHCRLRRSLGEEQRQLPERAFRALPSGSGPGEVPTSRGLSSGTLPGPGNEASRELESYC
In short: as §1

CCCCCCCCCCCCCCCC(=O)N[C@@H](CCC(=O)NCCCC[C@H](NC(=O)[C@H](CO)NC(=O)[C@@H]1CCCN1C(=O)[C@@H]1CCCN1C(=O)[C@@H]1CCCN1C(=O)[C@H](C)NC(=O)CNC(=O)[C@H](CO)NC(=O)[C@H](CO)NC(=O)[C@@H]1CCCN1C(=O)CNC(=O)[C@H](CCCNC(=N)N)NC(=O)[C@H](CCC(N)=O)NC(=O)[C@H](C)NC(=O)[C@H](CC(C)C)NC(=O)[C@H](CC(C)C)NC(=O)[C@H](Cc1c[nH]c2ccccc12)NC(=O)[C@H](CC(N)=O)NC(=O)[C@@H](NC(=O)[C@H](Cc1ccccc1)NC(=O)[C@H](CC(=O)O)NC(=O)[C@H](CCC(N)=O)NC(=O)[C@H](CCC(N)=O)NC(=O)[C@H](CCCNC(=N)N)NC(=O)[C@@H](NC(=O)[C@H](CCCCN)NC(=O)[C@H](CC(=O)O)NC(=O)[C@H](CCSC)NC(=O)[C@H](C)NC(=O)[C@@H](NC(=O)[C@H](CO)NC(=O)[C@H](Cc1ccc(O)cc1)NC(=O)[C@H](CC(=O)O)NC(=O)[C@H](CO)NC(=O)[C@@H](NC(=O)[C@H](Cc1ccccc1)NC(=O)[C@@H](NC(=O)CNC(=O)[C@H](CCC(=O)O)NC(=O)CSCC(=O)NCCN1C(=O)CSC1=O)[C@@H](C)O)[C@@H](C)CC)[C@@H](C)CC)[C@@H](C)CC)C(C)C)C(N)=O)C(=O)O [Compound 76] (X2-EGTFISDYSIAMDKIRQQDFVNWLLAQRGPSSGAPPPSK([γGlu-Palmitoyl])-NH2) showed an Emax ([1]; Table 3) of 95%, an EC50 ([1]; Table 3, read-out: EC50 GLP-1R/nM) of 1 to 10 nM and an Emax ([1]; Table 3A) of 95%. It also gave an EC50 ([1]; Table 3A, read-out: EC50 GLP-1R/nM) of 1 to 10 nM, an Emax ([2]; Table 3) of 89% and an EC50 ([2]; Table 3, read-out: EC50 GIP-R/nM) of 0.1 to 1 nM. The Emax ([2]; Table 3A) was 89% and the EC50 ([2]; Table 3A, read-out: EC50 GIP-R/nM) was 0.1 to 1 nM.
Compound CCCCCCCCCCCCCCCC(=O)N[C@@H](CCC(=O)NCCCC[C@H](NC(=O)[C@H](CO)NC(=O)[C@@H]1CCCN1C(=O)[C@@H]1CCCN1C(=O)[C@@H]1CCCN1C(=O)[C@H](C)NC(=O)CNC(=O)[C@H](CO)NC(=O)[C@H](CO)NC(=O)[C@@H]1CCCN1C(=O)CNC(=O)CNC(=O)[C@H](C)NC(=O)[C@H](CC(C)C)NC(=O)[C@H](CC(C)C)NC(=O)[C@H](Cc1c[nH]c2ccccc12)NC(=O)[C@H](CC(N)=O)NC(=O)[C@@H](NC(=O)[C@H](Cc1ccccc1)NC(=O)[C@H](CCC(=O)O)NC(=O)C(C)(C)NC(=O)[C@H](C)NC(=O)[C@H](C)NC(=O)[C@H](CCC(N)=O)NC(=O)[C@H](CCCCN)NC(=O)[C@H](CC(=O)O)NC(=O)[C@H](CC(C)C)NC(=O)[C@H](Cc1ccc(O)cc1)NC(=O)[C@@H](NC(=O)[C@H](CO)NC(=O)[C@H](Cc1ccc(O)cc1)NC(=O)[C@H](CC(=O)O)NC(=O)[C@H](CO)NC(=O)[C@@H](NC(=O)[C@H](Cc1ccccc1)NC(=O)[C@@H](NC(=O)CNC(=O)[C@H](CCC(=O)O)NC(=O)CSCC(=O)NCCN1C(=O)SC(C)C1=O)[C@@H](C)O)[C@@H](C)O)[C@@H](C)CC)C(C)C)C(N)=O)C(=O)O (mixture of isomers) [Compound 90] has an EC50 ([1]; EC50 GLP-1R/nM, Table 3) of 1 to 10 nM, an EC50 ([1]; EC50 GLP-1R/nM, Table 3A) of 1 to 10 nM and an Emax ([1]; Table 3) of 108%. For the same compound, the Emax ([1]; Table 3A) was 108%, the EC50 ([2]; EC50 GIP-R/nM, Table 3) was 1 to 10 nM and the EC50 ([2]; EC50 GIP-R/nM, Table 3A) was 1 to 10 nM. For the same compound, the Emax ([2]; Table 3) was 74% and the Emax ([2]; Table 3A) was 74%.
In the case of CC[C@H](C)[C@H](NC(=O)[C@H](CO)NC(=O)[C@H](Cc1ccc(O)cc1)NC(=O)[C@H](CC(=O)O)NC(=O)[C@H](CO)NC(=O)[C@@H](NC(=O)[C@H](Cc1ccccc1)NC(=O)[C@@H](NC(=O)CNC(=O)[C@H](CCC(=O)O)NC(=O)CSCC(=O)NCCN1C(=O)CC(C)CC1=O)[C@@H](C)O)[C@@H](C)O)C(=O)N[C@@H](Cc1ccc(O)cc1)C(=O)N[C@@H](CC(C)C)C(=O)N[C@@H](CC(=O)O)C(=O)N[C@@H](CCCCN)C(=O)N[C@@H](CCC(N)=O)C(=O)N[C@@H](C)C(=O)N[C@@H](C)C(=O)NC(C)(C)C(=O)N[C@@H](CCC(=O)O)C(=O)N[C@@H](Cc1ccccc1)C(=O)N[C@H](C(=O)N[C@@H](CC(N)=O)C(=O)N[C@@H](Cc1c[nH]c2ccccc12)C(=O)N[C@@H](CC(C)C)C(=O)N[C@@H](CC(C)C)C(=O)N[C@@H](C)C(=O)NCC(=O)NCC(=O)N1CCC[C@H]1C(=O)N[C@@H](CO)C(=O)N[C@@H](CO)C(=O)NCC(=O)N[C@@H](C)C(=O)N1CCC[C@H]1C(=O)N1CCC[C@H]1C(=O)N1CCC[C@H]1C(=O)N[C@@H](CO)C(=O)N[C@@H](CCCCN)C(N)=O)C(C)C [Compound 113], the EC50 ([1]; EC50 GLP-1R/nM, Table 3) is reported as 10 to 100 nM, the EC50 ([1]; EC50 GLP-1R/nM, Table 3A) is reported as 10 to 100 nM and the Emax ([1]; Table 3) is reported as 89%. The Emax ([1]; Table 3A) was 89%, the EC50 ([2]; EC50 GIP-R/nM, Table 3) was 10 to 100 nM and the EC50 ([2]; EC50 GIP-R/nM, Table 3A) was 10 to 100 nM. For the same compound, the Emax ([2]; Table 3) was 52% and the Emax ([2]; Table 3A) was 52%.
CC[C@H](C)[C@H](NC(=O)[C@H](CO)NC(=O)[C@H](Cc1ccc(O)cc1)NC(=O)[C@H](CC(=O)O)NC(=O)[C@H](CO)NC(=O)[C@@H](NC(=O)[C@H](Cc1ccccc1)NC(=O)[C@@H](NC(=O)CNC(=O)[C@H](CCC(=O)O)NC(=O)CSCC(=O)NCCN1C(=O)c2ccc([N+](=O)[O-])cc2C1=O)[C@@H](C)O)[C@@H](C)O)C(=O)N[C@@H](Cc1ccc(O)cc1)C(=O)N[C@@H](CC(C)C)C(=O)N[C@@H](CC(=O)O)C(=O)N[C@@H](CCCCN)C(=O)N[C@@H](CCC(N)=O)C(=O)N[C@@H](C)C(=O)N[C@@H](C)C(=O)NC(C)(C)C(=O)N[C@@H](CCC(=O)O)C(=O)N[C@@H](Cc1ccccc1)C(=O)N[C@H](C(=O)N[C@@H](CC(N)=O)C(=O)N[C@@H](Cc1c[nH]c2ccccc12)C(=O)N[C@@H](CC(C)C)C(=O)N[C@@H](CC(C)C)C(=O)N[C@@H](C)C(=O)NCC(=O)NCC(=O)N1CCC[C@H]1C(=O)N[C@@H](CO)C(=O)N[C@@H](CO)C(=O)NCC(=O)N[C@@H](C)C(=O)N1CCC[C@H]1C(=O)N1CCC[C@H]1C(=O)N1CCC[C@H]1C(=O)N[C@@H](CO)C(=O)N[C@@H](CCCCN)C(N)=O)C(C)C [Compound 107] gave an EC50 ([1]; EC50 GLP-1R/nM, Table 3) of 10 to 100 nM, an EC50 ([1]; EC50 GLP-1R/nM, Table 3A) of 10 to 100 nM and an Emax ([1]; Table 3) of 57%. It also gave an Emax ([1]; Table 3A) of 57%, an EC50 ([2]; EC50 GIP-R/nM, Table 3) of 0.1 to 1 nM and an EC50 ([2]; EC50 GIP-R/nM, Table 3A) of 0.1 to 1 nM. For the same compound, the Emax ([2]; Table 3) was 124% and the Emax ([2]; Table 3A) was 124%.
With CCCCCCCCCCCCCCCC(=O)N[C@@H](CCC(=O)NCCCC[C@H](NC(=O)[C@H](CO)NC(=O)[C@@H]1CCCN1C(=O)[C@@H]1CCCN1C(=O)[C@@H]1CCCN1C(=O)[C@H](C)NC(=O)CNC(=O)[C@H](CO)NC(=O)[C@H](CO)NC(=O)[C@@H]1CCCN1C(=O)CNC(=O)CNC(=O)[C@H](C)NC(=O)[C@H](CC(C)C)NC(=O)[C@H](CC(C)C)NC(=O)[C@H](Cc1c[nH]c2ccccc12)NC(=O)[C@H](CC(N)=O)NC(=O)[C@@H](NC(=O)[C@H](Cc1ccccc1)NC(=O)[C@H](CCC(=O)O)NC(=O)C(C)(C)NC(=O)[C@H](C)NC(=O)[C@H](C)NC(=O)[C@H](CCC(N)=O)NC(=O)[C@H](CCCCN)NC(=O)[C@H](CC(=O)O)NC(=O)[C@H](CC(C)C)NC(=O)[C@H](Cc1ccc(O)cc1)NC(=O)[C@@H](NC(=O)[C@H](CO)NC(=O)[C@H](Cc1ccc(O)cc1)NC(=O)[C@H](CC(=O)O)NC(=O)[C@H](CO)NC(=O)[C@@H](NC(=O)[C@H](Cc1ccccc1)NC(=O)[C@@H](NC(=O)CNC(=O)[C@H](CCC(=O)O)NC(=O)CSCC(=O)NCCN1C(=O)CC[C@@H]1C)[C@@H](C)O)[C@@H](C)O)[C@@H](C)CC)C(C)C)C(N)=O)C(=O)O (single isomer, unassigned) [Compound 75] the Emax ([1]; Table 3) was 99%, the Emax ([1]; Table 3A) was 99% and the Emax ([2]; Table 3) was 39%. The Emax ([2]; Table 3A) was 39%.
